For assay [1], the target named is T1, B-cell receptor CD22 (Mus musculus, UniProt P35329).
T1 sequence (P35329 whole entry): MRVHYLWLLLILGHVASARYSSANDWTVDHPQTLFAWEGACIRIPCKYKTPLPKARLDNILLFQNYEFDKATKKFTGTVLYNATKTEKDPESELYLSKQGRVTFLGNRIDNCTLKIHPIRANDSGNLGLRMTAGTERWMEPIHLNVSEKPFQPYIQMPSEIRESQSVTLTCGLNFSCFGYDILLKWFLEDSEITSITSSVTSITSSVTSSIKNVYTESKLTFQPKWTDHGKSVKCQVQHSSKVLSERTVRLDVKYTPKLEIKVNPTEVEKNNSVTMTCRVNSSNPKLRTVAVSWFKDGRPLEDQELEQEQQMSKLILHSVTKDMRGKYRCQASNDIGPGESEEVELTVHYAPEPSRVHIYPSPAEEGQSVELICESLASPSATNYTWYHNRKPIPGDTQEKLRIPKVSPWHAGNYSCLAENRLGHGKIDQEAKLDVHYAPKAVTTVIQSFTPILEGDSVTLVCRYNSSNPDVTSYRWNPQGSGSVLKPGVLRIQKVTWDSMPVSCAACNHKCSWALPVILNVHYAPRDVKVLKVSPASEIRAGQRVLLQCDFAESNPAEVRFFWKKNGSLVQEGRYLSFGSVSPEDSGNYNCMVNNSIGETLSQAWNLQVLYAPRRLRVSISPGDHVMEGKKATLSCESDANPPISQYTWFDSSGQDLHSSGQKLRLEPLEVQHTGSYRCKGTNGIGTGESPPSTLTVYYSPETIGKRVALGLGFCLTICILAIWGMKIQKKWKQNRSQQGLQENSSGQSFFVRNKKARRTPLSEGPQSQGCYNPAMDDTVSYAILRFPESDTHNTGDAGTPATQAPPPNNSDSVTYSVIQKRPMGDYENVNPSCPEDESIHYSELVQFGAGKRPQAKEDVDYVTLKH
Put plainly: Binding affinity to mouse CD22 after 1 hr by competition ELISA. In general terms: In an ELISA, binding on a coated surface is turned into a signal by an enzyme label.

Assay [2] concerns the target T2, B-cell receptor CD22 (Mus musculus) (UniProt P35329).
T2 sequence (whole entry): T1 sequence (P35329 whole entry)
Put plainly: Ratio of 9-([…]-4-biphenyl)acetamido-9-deoxy- Neu5Gca2-6GalOMP IC50 to compound IC50 for mouse CD22 after 1 hr by competition ELISA.

Bounds are passed on as bounds.

The compound `COc1ccc(O[C@@H]2O[C@H](CO[C@]3(C(=O)O)C[C@H](O)[C@H](NC(=O)CO)[C@H]([C@H](O)[C@H](O)CN)O3)[C@H](O)[C@H](O)[C@H]2O)cc1` had an IC50 in assay [1] of 82.9 µM. With `C[Si](C)(C)CCO[C@@H]1O[C@H](CO[C@]2(C(=O)O)C[C@H](O)[C@H](NC(=O)CO)[C@H]([C@H](O)[C@H](O)CO)O2)[C@H](O)[C@H](O)[C@H]1O`, the IC50 in assay [1] was 545 µM. Compared with the last compound, the IC50 is about 6.6-fold higher.

For the compound `CC(=O)N[C@@H]1[C@H]([C@H](O)[C@H](O)CO)O[C@@](OC[C@H]2O[C@@H](OCC[Si](C)(C)C)[C@H](O)[C@@H](O)[C@H]2O)(C(=O)O)C[C@@H]1O`, the IC50 in assay [1] is greater than 1000 µM. In turn, `COc1ccc(O[C@@H]2O[C@H](CO[C@]3(C(=O)O)C[C@H](O)[C@H](NC(=O)CO)[C@H]([C@H](O)[C@H](O)CO)O3)[C@H](O)[C@H](O)[C@H]2O)cc1` showed an IC50 in assay [1] of 305 µM.

On to `O=C(Cc1ccc(-c2ccc(O)cc2)cc1)NC[C@@H](O)[C@@H](O)[C@@H]1O[C@@](OCc2ccccc2)(C(=O)O)C[C@H](O)[C@@H]1NC(=O)CO`, for which, in assay [2], the Ratio IC50 came out at 38.4. The same compound showed an IC50 in assay [1] of 0.1 µM. In the case of `COc1ccc(O[C@@H]2O[C@H](CO[C@]3(C(=O)O)C[C@H](O)[C@H](NC(=O)CO)[C@H]([C@H](O)[C@H](O)CNC(=O)Cc4ccc(-c5ccc(O)cc5)cc4)O3)[C@H](O)[C@H](O)[C@H]2O)cc1`, the Ratio IC50 in assay [2] came out at 1. With `O=C(Cc1ccc(-c2ccc(O)cc2)cc1)NC[C@@H](O)[C@@H](O)[C@@H]1O[C@@](OCc2ccc(-c3ccccc3)cc2)(C(=O)O)C[C@H](O)[C@@H]1NC(=O)CO`, the Ratio IC50 in assay [2] was determined as 20.2. In addition, the IC50 in assay [1] amounted to 0.19 µM.

A word on the IC50: it is the midpoint of a concentration-inhibition curve.

These data come from ChEMBL document CHEMBL1156032, “Potent small molecule mouse CD22-inhibitors: exploring the interaction of the residue at C-2 of sialic acid scaffold” (Bioorg Med Chem Lett, 2009).
